According to US20120010148A1, “COMBINATION THERAPIES USING NAP” (ALLON THERAPEUTICS INC., priority 2008, published 2012):
Ends that are not written are not given here.

Key:
[1] = system: STOP+/− male mice; test: Mortality under chronic clozapine with or without intranasal NAP; type: in vivo, mouse; conditions: clozapine 10 mg/kg IP daily, n=4
Method: STOP+/− male mice (6 months old in average, n=4) received daily doses of 10 mg/kg intraperitoneal injection (IP) of clozapine (5 days a week), for the duration of the experiment (5 weeks). Clozapine (10 mg/kg) was solubilized under acidic conditions (pH ˜2.0 with HCl), and the solutions titrated back to ˜pH 7.4 with NaOH. In addition, these mice received daily intranasal vehicle solution that included the following ingredients (per milliliter): 7.5 mg of NaCl, 1.7 mg of citric acid monohydrate, 3 mg of disodium phosphate dihydrate, and 0.2 mg of benzalkonium chloride solution (50%) (Alcalay et al., Neurosci Lett 361, 128-131, 2004).
A combination of clozapine with NAP experiment included an additional four mice (6 months old in average) that were injected with clozapine and administered with NAP intranasally in the vehicle delineated above (Alcalay et al., Neurosci Lett 361, 128-131, 2004). NAP or vehicle solution was administered daily to mice hand-held in a semi-supine position with nostrils facing the investigator. A pipette tip was used to administer 2.5 μl/nostril. The mouse was hand-held until the solution was totally absorbed (˜10 s).
The experiment continued for 5 weeks.

[2] = system: Human SH-SY5Y neuroblastoma; test: Clozapine-induced cell death in SH-SY5Y cells, MTS assay; type: cell-based; conditions: clozapine 20 μg/ml, 24 hours, FIG. 1
From the text: Clozapine, a widely used anti psychotic drug may be associated with increased cell mortality. It was not known, however, whether NAP ([…], SEQ ID NO:2) treatment would inhibit clozapine associated neuronal death. To address this question and validate the efficiency of using a NAP-clozapine combination drug candidate, an experimental test system in cell culture was established (Heiser et al., Journal of Psychopharmacology 21(8):851-856 (2007)). Human SH-SY5Y neuroblastoma supplemented with 15% fetal calf serum (FCS) (Beit-Haemek, Israel), 1% penicillin-streptomycin, and 1% glutamine were incubated in a 5% CO2 atmosphere. Thirty-six thousand cells/well (in a 96 well plates) were plated 24 hours prior to the clozapine or NAP treatment. Clozapine (CLZ) was obtained from Sigma Chemicals (Sigma, Israel). Thirty-six thousand cells per well (in at least 6 replicate wells) were exposed to clozapine (CLZ, 20 μg/ml) or clozapine (CLZ, 20 μg/ml)+NAP or NAP alone (10^−15M-10^−10 M) for 24 hours at 37° C. Drug and control solutions were dissolved in ethanol. Measurement of metabolic activity and survival was determined by non-radioactive cell proliferation assay (MTS) (Promega, USA) and evaluated by an ELISA-reader at 490 nm wavelength.

[3] = system: neurons of the central nervous system; conditions: in vitro assays and in vivo disease models; cited from earlier work
[4] = system: STOP−/− mice; conditions: STOP−/− schizophrenia model; cited from earlier work
[5] = system: MS; conditions: daily subcutaneous injections, 20 mg/injection; cited from earlier work

CN1CCN(C2=Nc3cc(Cl)ccc3Nc3ccccc32)CC1 [clozapine, Clozapine]
death ([1]; after 2.5 weeks of treatment): 50% | death (cumulative) ([1]; at ~4.5 weeks): 75% | cell death [2]: about 60%

SALLRSIPA
survival of neurons in response to various insults [3]: keep neurons of the central nervous system alive

C/C1=C/C[C@@H](/C(C)=C/c2csc(C)n2)OC(=O)C[C@H](O)C(C)(C)C(=O)[C@H](C)[C@@H](O)[C@@H](C)CCC1 [epothilone D]
synaptic function and behavior [4]: ameliorates synaptic function and behavior

glatiramer acetate
relapse rates, progression of disability, new MRI lesions [5]: reduce relapse rates, progression of disability, appearance of new lesions
